In data set [1] the test system is passive cutaneous anaphylaxis (PCA). Nature of the data set: passive cutaneous anaphylaxis (PCA) in rats after passive sensitization with IgE antibodies and antigen provocation. It counts as in vivo. As to conditions: po; Rat. Here is the method: (a) Tests on allergized rats were carried out after passive sensitization of the animals with IgE antibodies and subsequent antigen provocation. In this way, passive cutaneous anaphylaxis (PCA) was produced (Goose et al [1969]: Immunology 16, 749).

Data set [2] relates to histamine wheal. Nature of the data set: histamine wheal (antihistaminic activity) in rats, Evans Blue extravasation. Format: in vivo. An excerpt: (b) Antihistaminic activity:
The results were quantified by measuring the wheal after extravasation of Evans Blue dye into the skin.

Data set [3] in a line: in vivo. The conditions noted are these: mouse, po.

Turning to `Br.Cn1cc2n(c1=N)-c1ccccc1Cc1ccccc1-2` [Example 2, 2-Methyl-3-imino-2,3-dihydro-9H-dibenz-[c,f]-imidazo-[1,5-a]-azepine hydrobromide], the ED50 in data set [1] turned out to be 1.1 mg/kg. Moreover, the “Histamine Wheal (rat) i.v.” value in data set [2] (i.v.) is recorded as 0.07. Further, in data set [2] (p.o.), the “Histamine Wheal (rat) p.o.” value worked out at 2.7. In data set [3], this compound gave an LD50 of 280 mg/kg.

As a reminder, the ED50 is the dose at which the effect has come halfway, by size or by number of responders. In general, LD50 refers to the dose at which mortality reaches 50%. Higher therefore signals lower toxicity.

The record behind these values is patent US4503060A, “3-Imino-3H-dibenzo-[c,f]-imidazo-[1,5-a]azepine pharmaceuticals” (Boehringer Ingelheim KG, priority 1981, dated 1985).
